Assay results from BindingDB's records for doi:10.1021/jm990614i (Harvard Medical School, 2000).

What follows are compounds tested against Aldehyde dehydrogenase, mitochondrial (Mesocricetus auratus) (assay: Compound was evaluated for the inhibition of Hamster Liver mitochondrial ALDH-2).

IC50 [nM]	Compound
100	O=c1c(-c2ccc(O)cc2)coc2cc(OCC(O)CO)ccc12 (stereo unspecified) [7-(2,3-Dihydroxy-propoxy)-3-(4-hydroxy-phenyl)-chromen-4-one]

The compounds below were run against Aldehyde dehydrogenase, mitochondrial (Mesocricetus auratus) (assay: Inhibition of Hamster Liver mitochondrial ALDH-2).

Compound	IC50 [nM]
C=CCOc1ccc2c(=O)c(-c3ccc(O)cc3)coc2c1 [7-Allyloxy-3-(4-hydroxy-phenyl)-chromen-4-one]	800
O=c1c(-c2ccc(O)cc2)coc2cc(OCCC3OCCCO3)ccc12 [7-(2-[1,3]Dioxan-2-yl-ethoxy)-3-(4-hydroxy-phenyl)-chromen-4-one]	400
CCOc1ccc2c(=O)c(-c3ccc(O)cc3)coc2c1 [7-Ethoxy-3-(4-hydroxy-phenyl)-chromen-4-one]	40

Next, values leading:

IC50 [nM]	Compound
9	O=C(O)CCCCCCOc1ccc2c(=O)c(-c3ccc(O)cc3)coc2c1 [7-[3-(4-Hydroxy-phenyl)-4-oxo-4H-chromen-7-yloxy]-heptanoic acid]
4	O=C(O)CCCCCCCCCOc1ccc2c(=O)c(-c3ccc(O)cc3)coc2c1 [10-(3-(4-hydroxyphenyl)-4-oxo-4H-chromen-7-yloxy)decanoic acid]
